Test results taken from ChEMBL document CHEMBL1201862, “PubChem BioAssay data set” (2004).
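Where inhibition never reached the appropriate level, the endpoint shown equals the highest concentration tested. Otherwise, values were interpolated linearly from a five-concentration, 48-hour dose response in 96-well plates. Here, GI50 denotes the concentration required for 50% inhibition of growth.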 Calls of active or inactive are those of the source. Rule as the data show it: active = GI50 up to about 1.1 µM and inactive = higher.

Columns and labels:
Assay in all cases: inhibition of tumour cell growth, NCI panel, 48 h
CAKI-1 = tested on: CAKI-1
SK-MEL-28 = tested on: SK-MEL-28
UO-31 = tested on: UO-31
SF-539 = tested on: SF-539
SF-295 = tested on: SF-295
EKVX = tested on: EKVX
SNB-19 = tested on: SNB-19
RPMI-8226 = tested on: RPMI-8226
HCT-15 = tested on: HCT-15
HCC 2998 = tested on: HCC 2998
UACC-62 = tested on: UACC-62
NCI-H460 = tested on: NCI-H460
SK-OV-3 = tested on: SK-OV-3
RXF 393 = tested on: RXF 393
SK-MEL-2 = tested on: SK-MEL-2
HOP-92 = tested on: HOP-92
SNB-75 = tested on: SNB-75
ACHN = tested on: ACHN
BT-549 = tested on: BT-549
MDA-N = tested on: MDA-N

SMILES	GI50 (CAKI-1)	GI50 (SK-MEL-28)	GI50 (UO-31)	GI50 (SF-539)	GI50 (SF-295)	GI50 (EKVX)	GI50 (SNB-19)	GI50 (RPMI-8226)	GI50 (HCT-15) [µM]	GI50 (HCC 2998)	GI50 (UACC-62)	GI50 (NCI-H460)	GI50 (SK-OV-3)	GI50 (RXF 393)	GI50 (SK-MEL-2)	GI50 (HOP-92)	GI50 (SNB-75)	GI50 (ACHN)	GI50 (BT-549)	GI50 (MDA-N)
O=c1/c(=C/c2ccc3c(c2)OCO3)sc2nnc(Cc3ccccc3)n12	> 100 µM (inactive)	> 100 µM (inactive)	> 100 µM (inactive)	> 100 µM (inactive)	> 100 µM (inactive)	> 100 µM (inactive)	> 100 µM (inactive)	34.5 µM (inactive)	> 100	81.8 µM (inactive)	> 100 µM (inactive)	> 100 µM (inactive)	> 100 µM (inactive)	> 100 µM (inactive)	> 100 µM (inactive)	> 100 µM (inactive)	61.1 µM (inactive)	> 100 µM (inactive)	–	–
C=C1C(=O)O[C@H]2[C@@H](O)[C@H](C)CCC[C@]3(C)O[C@H]3CC[C@@]3(C)O[C@@H]3C[C@@H]12	6.22 µM (inactive)	2.83 µM (inactive)	6.04 µM (inactive)	6.81 µM (inactive)	8.55 µM (inactive)	4.06 µM (inactive)	11.9 µM (inactive)	2.15 µM (inactive)	1.29	4.93 µM (inactive)	2.3 µM (inactive)	–	10.1 µM (inactive)	1.67 µM (inactive)	9.2 µM (inactive)	–	6.9 µM (inactive)	–	1.24 µM (inactive)	–
O=C(OCC(Cl)(Cl)Cl)N1CC[C@H](C2CCCCC2)C1	31.6 µM (inactive)	–	17.6 µM (inactive)	–	16.2 µM (inactive)	16.9 µM (inactive)	16.5 µM (inactive)	–	18.2	18.5 µM (inactive)	22.1 µM (inactive)	18.6 µM (inactive)	15.6 µM (inactive)	19.5 µM (inactive)	15.8 µM (inactive)	–	20.8 µM (inactive)	19.3 µM (inactive)	24.2 µM (inactive)	34.9 µM (inactive)
CCN(CC)CCC1CCCCN1CC(=O)N1c2cc(Cl)ccc2NC(=O)CC1C (stereo not given)	> 100 µM (inactive)	> 100 µM (inactive)	> 100 µM (inactive)	> 100 µM (inactive)	> 100 µM (inactive)	> 100 µM (inactive)	> 100 µM (inactive)	> 100 µM (inactive)	> 100	> 100 µM (inactive)	> 100 µM (inactive)	> 100 µM (inactive)	> 100 µM (inactive)	> 100 µM (inactive)	> 100 µM (inactive)	> 100 µM (inactive)	–	> 100 µM (inactive)	–	> 100 µM (inactive)
C1=NN(Cc2ccccc2)C(N(Cc2ccccc2)Cc2ccccc2)N1 (stereo not given)	14.4 µM (inactive)	19 µM (inactive)	14.2 µM (inactive)	15.4 µM (inactive)	14.5 µM (inactive)	20.3 µM (inactive)	20.9 µM (inactive)	3.9 µM (inactive)	16.1	17.5 µM (inactive)	14 µM (inactive)	18.1 µM (inactive)	15.4 µM (inactive)	16.2 µM (inactive)	16.4 µM (inactive)	12.8 µM (inactive)	23.1 µM (inactive)	19.7 µM (inactive)	–	–
C=C1C(=O)O[C@H]2[C@H]3O[C@@H](C[C@@H]12)[C@](C)(O)CC[C@@H]1O[C@@]1(C)CCC[C@H]3C	14.2 µM (inactive)	32 µM (inactive)	22.2 µM (inactive)	18.7 µM (inactive)	68.9 µM (inactive)	15.6 µM (inactive)	36.3 µM (inactive)	47.2 µM (inactive)	16.9	25.8 µM (inactive)	16.5 µM (inactive)	24.8 µM (inactive)	29.4 µM (inactive)	13 µM (inactive)	15.9 µM (inactive)	16.4 µM (inactive)	18.5 µM (inactive)	15.5 µM (inactive)	12.2 µM (inactive)	–
O=[N+]([O-])/C(C(Cl)=C(Cl)Cl)=C1\NCCO1	> 100 µM (inactive)	> 100 µM (inactive)	> 100 µM (inactive)	> 100 µM (inactive)	> 100 µM (inactive)	> 100 µM (inactive)	> 100 µM (inactive)	> 100 µM (inactive)	> 100	> 100 µM (inactive)	35.7 µM (inactive)	> 100 µM (inactive)	> 100 µM (inactive)	90.4 µM (inactive)	> 100 µM (inactive)	–	–	> 100 µM (inactive)	–	> 100 µM (inactive)
COC(=O)C1CCC(=O)N1C(c1cc(OC)c(OC)c(OC)c1)c1cccc2ccccc12 (stereo not given)	–	> 100 µM (inactive)	61.2 µM (inactive)	> 100 µM (inactive)	> 100 µM (inactive)	> 100 µM (inactive)	> 100 µM (inactive)	76.6 µM (inactive)	71.1	–	45 µM (inactive)	> 100 µM (inactive)	25.4 µM (inactive)	–	> 100 µM (inactive)	38.2 µM (inactive)	61 µM (inactive)	> 100 µM (inactive)	–	60.5 µM (inactive)
Cn1c2ccccc2c2nc3ccccc3c(Cl)c21	> 100 µM (inactive)	> 100 µM (inactive)	–	> 100 µM (inactive)	> 100 µM (inactive)	–	> 100 µM (inactive)	> 100 µM (inactive)	> 100	–	92.5 µM (inactive)	> 100 µM (inactive)	35.9 µM (inactive)	37.9 µM (inactive)	> 100 µM (inactive)	> 10 µM (inactive)	23.4 µM (inactive)	–	> 100 µM (inactive)	–
CC(C)(C)NC1C2CCC(C)(C1O)C2(C)C (stereo not given)	> 100 µM (inactive)	> 100 µM (inactive)	> 100 µM (inactive)	> 100 µM (inactive)	> 100 µM (inactive)	> 100 µM (inactive)	> 100 µM (inactive)	> 100 µM (inactive)	> 100	> 100 µM (inactive)	3.67 µM (inactive)	> 100 µM (inactive)	> 100 µM (inactive)	> 100 µM (inactive)	> 100 µM (inactive)	–	0.021 µM (active)	8.63 µM (inactive)	> 100 µM (inactive)	–
N#Cc1cccc2c1Sc1ccccc1N2	32.2 µM (inactive)	–	27.1 µM (inactive)	20.4 µM (inactive)	23.9 µM (inactive)	19.1 µM (inactive)	33.1 µM (inactive)	27.7 µM (inactive)	23.6	27 µM (inactive)	27.2 µM (inactive)	32.5 µM (inactive)	38.9 µM (inactive)	3.7 µM (inactive)	–	32.3 µM (inactive)	1.77 µM (inactive)	33.4 µM (inactive)	28.4 µM (inactive)	–
COC(=O)C(NC(=O)C12CCC(C)(C(=O)O1)C2(C)C)c1cc(C(C)(C)C)c(O)c(C(C)(C)C)c1 (stereo not given)	> 100 µM (inactive)	> 100 µM (inactive)	95.9 µM (inactive)	> 100 µM (inactive)	> 100 µM (inactive)	> 100 µM (inactive)	> 100 µM (inactive)	14.7 µM (inactive)	91.2	–	> 100 µM (inactive)	–	> 100 µM (inactive)	83.2 µM (inactive)	> 100 µM (inactive)	> 100 µM (inactive)	> 100 µM (inactive)	> 100 µM (inactive)	> 100 µM (inactive)	–
CS/C(=N/S(=O)(=O)c1ccc(Cl)cc1)NCCCN/C(=N\S(=O)(=O)c1ccc(Cl)cc1)SC	23.3 µM (inactive)	25.8 µM (inactive)	13 µM (inactive)	64 µM (inactive)	12.7 µM (inactive)	12.7 µM (inactive)	80.7 µM (inactive)	13.7 µM (inactive)	7.76	22.5 µM (inactive)	16.9 µM (inactive)	10.2 µM (inactive)	31.1 µM (inactive)	–	14.2 µM (inactive)	1.81 µM (inactive)	15.8 µM (inactive)	12.1 µM (inactive)	–	12.1 µM (inactive)
NCCSCC(N)C(=O)O (stereo not given)	> 100 µM (inactive)	> 497 µM (inactive)	85.5 µM (inactive)	> 497 µM (inactive)	> 497 µM (inactive)	> 497 µM (inactive)	> 497 µM (inactive)	47.1 µM (inactive)	> 87.5	> 497 µM (inactive)	> 497 µM (inactive)	60.1 µM (inactive)	> 497 µM (inactive)	> 497 µM (inactive)	> 497 µM (inactive)	> 497 µM (inactive)	> 40.4 µM (inactive)	65.9 µM (inactive)	> 100 µM (inactive)	–
O=C1C=C/C(=N\N=C(c2ccccc2)c2ccccc2)O1	> 10 µM (inactive)	> 10 µM (inactive)	–	–	> 10 µM (inactive)	> 10 µM (inactive)	–	> 10 µM (inactive)	> 10	> 10 µM (inactive)	> 10 µM (inactive)	–	> 10 µM (inactive)	> 10 µM (inactive)	–	> 10 µM (inactive)	> 10 µM (inactive)	–	–	> 10 µM (inactive)
[C-]#[N+]C1(C(=O)OCC)CC1	–	> 100 µM (inactive)	–	> 100 µM (inactive)	> 100 µM (inactive)	> 100 µM (inactive)	> 100 µM (inactive)	> 100 µM (inactive)	> 100	> 100 µM (inactive)	> 100 µM (inactive)	> 100 µM (inactive)	–	> 100 µM (inactive)	–	> 100 µM (inactive)	> 100 µM (inactive)	> 100 µM (inactive)	–	> 100 µM (inactive)
